For `CCOC(=O)c1ccc(N(C(=O)OCC)C(=O)c2ccc(C(=O)C(C)(C)C)cc2)cc1`, the melting point was in the range of 84 to 86 °C.

For `O=C(O)c1cccc2c1ccn2-c1ccnc(N[C@H]2CC[C@H](O)CC2)n1`, the melting point lay in the range of 259 to 261 °C. Compound `Cc1cc(COc2cccc3c2CN(C2CCC(=O)NC2=O)C3=O)ccc1Cl` (stereo unspecified) had a melting point of 217 to 219 °C. `Cc1c(CC(=O)O)c2ccccc2c(=O)n1O` showed a melting point of 198 to 200 °C.

Turning to `CCNC(=O)c1ccc(-n2nnc(C(=O)NC3CC3)c2CNCc2ccccc2)cc1`, the melting point was found to be 153 °C. The compound `O=C1Nc2ccc(Cl)cc2C1(O)c1cccc2c1OCO2` (stereo unspecified) gave a melting point of 271 °C. Compound `NS(=O)(=O)c1cc(C2CO2)ccc1F` (stereo unspecified) came in with a melting point of 100 to 103 °C.

`CCCCc1ncc(C=C2C(=O)N(C)c3ccccc32)n1Cc1ccc(C(=O)O)cc1`: the melting point was 185 to 188 °C. Regarding `Oc1noc2ccc(Cl)cc12`, the melting point lay in the range of 219 to 222 °C. For `NNc1cc2ccccc2cc1C(=O)O`, the melting point is above 300 °C. Regarding `CC(C)N(C(=O)c1ccc(OCCCCCOc2ccc(C(N)=NO)cc2)cc1)C(C)C`, the melting point lay within 146 to 149 °C. `Clc1ccc(N2CCN(Cc3nc4ccccc4[nH]3)CC2)cc1` had a melting point of 212 to 213 °C. Under `CCC(=O)c1ccn(S(=O)(=O)c2ccccc2)c1C` stands 105 to 110 °C; under `Cc1cn([C@@H]2C[C@H](O)[C@@H](O)[C@H]2O)c(=O)[nH]c1=O` (racemic), 201 to 202 °C. For the compound `O=C(NCC(F)(F)F)c1ccc(-c2ccc3nnn(Cc4ccc5ncccc5c4)c3n2)cc1F`, the melting point lay in the range of 194 to 196 °C. Consider `O=c1[nH]ncc2[nH]c(-c3ccc(OC(F)F)c(OC4CC4)c3)c(Cc3ccccc3)c12`, for which the melting point is 215 to 217 °C. Compound `COc1ccc(CCN(C)C)c2[nH]c(=O)[nH]c12` registered a melting point of 197 to 199 °C. Regarding `COc1nc2sccc2c2nc(S(=O)(=O)Nc3c(Cl)cccc3Cl)nn12`, the melting point lay within 224 to 226 °C.

As for `Cn1c(CC(C)(C)C(=O)O)c(C(=O)c2ccc(Cl)cc2)c2ccc(OCc3ccc4ccccc4n3)cc21`, the melting point lay in the range of 203 to 205 °C. `CC(C)c1cccc(C(C)C)c1NC(=O)C1c2ccccc2COc2ccc(C(=O)O)cc21` (stereo unspecified) had a melting point of 289 to 290 °C. Compound `CCCOc1ccc(SCCSc2ccc(OCCC)cc2)cc1` yielded a melting point of 111 to 112 °C.

On to `CCOC(=O)C(OC)C(=O)Nc1cc(Cl)cc(Cl)c1` (stereo unspecified), for which the melting point lay within 89.5 to 92.5 °C. Regarding `CCN1C(=O)C(C)(C)C(=O)N(C)c2cc(CCN(CCn3cc(C)c4oc(C)cc4c3=O)Cc3cnccc3C)ccc21`, the melting point is 155 to 156 °C.

`O=[N+]([O-])C(CO)(CO)c1cc(Br)cnc1Cl` yielded a melting point of 162 to 163 °C. In the case of `CCS(=O)(=O)Nc1cc(-c2nsc(C(F)(F)F)c2Cl)c(Cl)cc1Cl`, the melting point is 135 °C. With `CC(=O)Nc1nc2c(s1)CCN(Cc1ccccc1)CC2`, the melting point fell in the range of 129 to 130 °C.

`CN1CC(=O)Nc2ccc(F)cc2C1=O` gave a melting point above 250 °C. For `CN(CCN1CCN(c2cccc3c2OCCO3)CC1)c1cnn(C)c(=O)c1Cl`, the melting point was 114 to 116 °C. Regarding `Cc1cc(Br)cnc1CCCCNc1ncc(Cc2ccc(F)cc2)c(=O)[nH]1`, the melting point is 172 to 173 °C. On to `COc1ccc(CCNC(=O)CCCCC(=O)NCCc2cccc3ccccc23)cc1OC`, for which the melting point lay within 156 to 157 °C. Under `CCOC(=O)c1cc(=O)c2cccc(COc3ccc(OCc4ccc5ccccc5n4)cc3)c2o1` stands 124 to 127 °C. Turning to `O=C(CCc1ccccc1)Nc1cc(C(=O)NCc2ccccc2)ccn1`, the melting point lay in the range of 177 to 179 °C. Compound `COCCOc1cc(N(C)S(=O)(=O)c2cccs2)c2[nH]c(C3=NCC(CCO)S3)cc2c1` (stereo unspecified) gave a melting point of 122 to 123 °C. As for `CCCC1=C(C(=O)OCC)C(c2ccccc2C#N)c2c[nH]nc2N1` (stereo unspecified), the melting point stood at 211 °C. The value for `CCOc1cc2c(Nc3cc(OC)c(Cl)cc3Cl)c(C#N)cnc2cc1OCCCC1CCN(C)CC1` was 148 to 151 °C; that for `CCOC(=O)c1c(S(=O)(=O)Nc2c(F)cccc2F)nn2c(C)cc(C)nc12` was 88 to 110 °C; that for `COCC(=O)N[C@H]1CC[C@H](Nc2nccc(-n3nnc4ccccc43)n2)CC1` was 234 to 235 °C. `CC(Oc1cccc(Cl)c1)C(=O)NCCO[N+](=O)[O-]` (stereo unspecified): the melting point fell in the range of 67 to 69 °C.

As for `COc1ccc(C2=NN(C3CCN(CC(N)=O)CC3)C(=O)C(C)(C)C2)c2c1OC(C)(C)C2`, the melting point was 215 to 216 °C. `CCS(=O)(=O)N[C@H]1CC[C@H](CCN2CCC(c3cccc4c3CCO4)CC2)CC1` showed a melting point of 131 °C. `COC(=O)c1ccc(NC(=O)c2ccccc2-c2ccccc2)cc1Cl` yielded a melting point of 132 to 134 °C. The compound `CCOC(=O)c1cn(NC=O)c2c(OCc3ccccc3)c(F)c(F)cc2c1=O` displayed a melting point of 188 to 190 °C. For `CC1(C)C(=O)Oc2c(S(C)(=O)=O)cc3cc(S(C)(=O)=O)c(Cn4cncn4)cc3c21`, the melting point lay within 263 to 264 °C.

Consider `CCCCN(CCCC)c1ccc(C=Cc2ccc(C=CC3=C(C#N)C(=C(C#N)C#N)OC3(C)C(F)(F)F)s2)c(OC)c1` (stereo unspecified), for which the melting point lay in the range of 191 to 193 °C. In turn, `CCn1nc(C)c2c(NCc3ccccc3)c3ccccc3nc21` yielded a melting point of 228 to 231 °C. Regarding `O=[N+]([O-])c1cccc(-c2csc(NS(=O)(=O)c3ccc(Cl)c(Cl)c3)n2)c1`, the melting point is 189 to 191 °C. `O=C(NCCN1CCCC1)Nc1ccc(-c2cnc(COCc3cc4ccccc4o3)o2)cc1` displayed a melting point of 124 to 126 °C. For the compound `CC(C)c1ccc(NC(=O)OC(C)(C)C)c(C(=O)NCC2CCN(C(c3ccccc3)c3ccccc3)CC2)c1`, the melting point fell in the range of 88 to 90 °C.

In turn, `NC(CCN(CCC(N)=NO)CCN(CCC(N)=NO)CCC(N)=NO)=NO` returned a melting point of 191 to 192 °C. As to `CNC(=O)Cc1ccc(O)cc1`, the melting point fell in the range of 124 to 125 °C.

Consider `O=C(NC(=O)C(Cl)CCl)Nc1cccc(Cl)c1Cl` (stereo unspecified), for which the melting point lay in the range of 195 to 196 °C. For `N#Cc1ccc2[nH]cc(C3CCC(=O)CC3)c2c1`, the melting point was 162 to 164 °C. The value for `COc1ccc(C(=O)N2CCN(c3c(C)c(C)c4c(c3C)C(c3ccc(C)cc3)C(C)(C)O4)CC2)cc1` (stereo unspecified) was 163 to 165 °C; that for `CC(C)(C)OC(=O)N[C@@H]1C(=O)N(OCc2ccccc2)C1(C)C` was 121 to 122 °C. Compound `CN1C2CCCC1CN(c1ccc3cc([N+](=O)[O-])ccc3n1)C2` showed a melting point of 166 °C.

`CCc1nnc2n1-c1ccc(I)cc1C(c1ccccc1F)=NC2` returned a melting point of 209 to 211 °C. The value for `O=C(NCCCSc1ccncc1)c1ccccc1CO` was 110 to 111 °C; that for `COc1cccc(-c2cn3c(ccc4ccccc43)n2)c1` was 129 to 131 °C; that for `Cc1ccc(C)n1-c1nc(S(=O)(=O)Nc2c(Cl)cccc2Cl)n[nH]1` was 107 to 108 °C. As to `c1ccc2c(c1)Oc1ccccc1C2NCc1ccncc1`, the melting point was in the range of 83 to 85 °C. The compound `COc1ccc(C(=O)C(C)NC(=O)C(F)(F)F)cc1` (stereo unspecified) had a melting point of 110 to 114 °C. The value for `CC1(C)CCc2c(N3CCOCC3)nc3sc4c(NCCCN5CCCC5=O)ncnc4c3c2C1` was 210 °C; that for `CC(C)=C(C)CCC(C)C1CCC2(C)C3CCC4C(C)(C)C(O)CCC45CC35CCC12C` (stereo unspecified) was 165 to 166 °C. As to `COc1ccc(S(=O)(=O)N2c3ccc(Br)cc3-c3ccccc3C2c2ccccc2)cc1Br` (stereo unspecified), the melting point fell in the range of 205 to 207 °C.

Regarding `N#Cc1ccc(-n2c(=O)oc3ccc(-c4ccc(F)cc4F)cc3c2=O)cc1`, the melting point is 203 to 204 °C. Under `Cn1c(Nc2c(Cl)ccc(CNC(=O)C(C)(C)C)c2Cl)nc2cc(C(=O)N[C@H]3CC[C@H](C(F)(F)F)CC3)c(N3CCC(C(F)(F)F)CC3)nc21` stands 185 to 186 °C; under `Cc1nc(N)nc(N)c1-c1ccc2ccccc2c1`, 221 to 222 °C. `COC(=O)c1ccccc1CC(=O)Nc1cccc(/C=C/c2nc(C3CCC3)cs2)c1`: the melting point was 143 to 144 °C. For the compound `C=CCc1c(O)ccc2c(C)cc(=O)oc12`, the melting point is 192 to 195 °C. The compound `COc1ccc2c(c1O)CCN(C=O)C2` gave a melting point of 172 to 174 °C.

In turn, `COCCOc1cc2ncnc(NC3=CC(=O)C(Oc4cccnc4)=CC3=O)c2cc1OC` showed a melting point of 189 to 190 °C. As for `C[C@H]1COc2c(N3CC(C)(N)C4(CC4)C3)c(F)cc3c(=O)c(C(=O)O)cn1c23` (stereo partly specified), the melting point was 268 to 270 °C.

`CCOc1cc2ncc(C#N)c(Nc3ccc4c(c3)S(=O)(=O)C=C4)c2cc1OCC`: the melting point fell in the range of 155 to 160 °C. `NCC1CN(c2cc(F)c(-c3cccnc3)c(F)c2)C(=O)O1` (stereo unspecified) returned a melting point of 143 to 145 °C.

For the compound `CCCN(CCC)[C@@H]1Cc2c(-c3ncco3)ccc3c2[C@H](CN3)C1`, the melting point lay within 103 to 104 °C. Under `CCOC(=O)c1cn(C(C)C(OC)OC)c2c(F)c(F)c(F)cc2c1=O` (stereo unspecified) stands 125 to 126 °C; under `COCCOc1cc(NS(=O)(=O)c2ccccn2)c2[nH]c(C(=O)O)cc2c1`, 230 to 232 °C; under `COc1ccc(Cl)n2nc(S(=O)(=O)Cl)nc12`, 149 to 151 °C.

As for `O=C(O)Cc1cc(C(=O)c2ccc(Cl)cc2)ccc1O`, the melting point turned out to be 250 °C. `CCC1CC(=O)Nc2c1cnn2CC` (stereo unspecified) returned a melting point of 203 to 204 °C. For the compound `Cc1cc(F)ccc1-c1ccc(S(=O)(=O)N2c3ccccc3CC2C(=O)NCCOc2cc(F)c(C(=O)O)c(F)c2)cc1` (stereo unspecified), the melting point lay in the range of 97 to 111 °C. The compound `CC(c1oc2ccccc2c(=O)c1-c1cccc(F)c1)n1ccc2c(Cl)ncnc21` (stereo unspecified) came in with a melting point of 71 to 75 °C. In turn, `CN(O)C(=O)c1ccc(OCCOc2ccccc2)cc1` yielded a melting point of 134 to 136 °C.

Compound `COc1ccc(C(=O)C#CCO)c(OC)c1OC` returned a melting point of 82 to 83 °C. Compound `COc1ccc(-c2cc(=O)c3c(O)cc(OC)cc3o2)cc1` came in with a melting point of 174 to 175 °C. The value for `O=C(CBr)c1ccc2c(c1)CCCS2` was 92 to 94 °C.

The term melting point denotes the temperature of the solid-liquid transition.

These data come from a melting point compilation (Tetko et al.; mined from patent text by program, amines drawn as free bases though some values may be those of a salt).
